Key:
[1] = Visible particles by Seidenader after spiking FFA to inorganic salt solutions; type: physicochemical; settings: for Visible particles in Seidenader: dependent on salt concentration over time, much lesser extent than CaCl2 and NaAlO2; for Visible particles Seidenader d0 / Visible particles Seidenader d1 / Visible particles Seidenader d2 / Visible particles Seidenader d7: FFA below solubility limit; for Visible particles Seidenader d0: d0 directly after spiking
Procedure: Del.) at 100 rpm at 25° C., for 1 hour. […] FFA concentrations were verified for selected by LC-MS samples acc. Honemann et al.^7
[…] NaCl, NaAlO2. NaBO2. B2O3, and CaCl2 (Sigma-Aldrich/Merck. Darmstadt. Del.) were selected as their dissolution products (ions) represent typical glass leachables from Type I borosilicate glass. The pH of the NaAlO2 and NaBO2 stock solutions was adjusted to pH 6 using HCl and subsequently filtered using 0.22 μm PVDF Sterivex filters (Merck Millipore. Darmstadt. Del.) and true elemental concentrations were determined by inductively-coupled plasma mass spectrometry (ICP-MS). […] Spiking experiments with FFA were performed in duplicates.
(§1) Samples were analyzed by visual inspection on a Seidenader V 90-T instrument (Seidenader Maschinenbau GmbH. Markt Schwaben. Del.) as previously described by Ditter et al.^9 and using a black/white panel according Ph. Eur. 2.9.20.^10 and classified as Many particles (>7). Few particles (4-7), or Practically free of particles (0-4) in E/P box, and Many particles (>10). Few particles (6-10). Essentially free of particles (1-5), or Free of particles (0) by Seidenader.
(§2) pH of all solutions was verified. Samples were visually inspected immediately after spiking and regularly for up to 7 days. Further characterization by HIAC, turbidity, FTIR, and SEM-EDX was performed on day 1 only. All samples were analyzed when equilibrated to room temperature (4 h).
Different inorganic salt solutions, i.e. CaCl2. NaAlO2. NaBO2. B2O3, and NaCl, were prepared simulating artificial glass leachables. Myristic and lauric acid, as main degradation product from hydrolytic PS20 degradation, were added at concentrations below their solubility limit and samples were analyzed for visible particles. SVP, and turbidity. Samples were compared against relevant controls and the pH verified at pH 6.

[2] = Visible particles (Seidenader) after spiking FFA to glass leachable solutions; type: physicochemical; design: key to Visible particles: relative ranking to each other from less to most particle fromation (+, ++, +++); relative ranking to each other from less to most particle fromation (+, ++, +++); relative ranking to each other from less to most particle fromation (+, ++, +++); settings: for Visible particles d0: d0 directly after spiking; for Visible particles: FFA below solubility limit, up to 7 days, triplicates
Procedure: Aqueous stock solutions were prepared in 0.02% PS20 (Croda. Edison, N.J., USA) at defined concentrations of (1) 5 mg/mL and (2) 12.5 mg/mL (lauric acid. Sigma-Aldrich/Merck. Darmstadt. Del.) or (1) 1.5 mg/mL and (2) 5 mg/mL (myristic acid, Sigma-Aldrich/Merck. Darmstadt. Del.) as previously described by Doshi et al.^6 The procedure was adapted that the FFA/PS20 stock solution was sterile filtered using 0.22 μm PVDF Steriflip filters (Merck Millipore. Darmstadt. Del.) before 1:10 dilution and subsequently homogenized without a magnetic stirrer using a Heidolph Rotamax 120 orbital shaker (Schwabach. Del.) at 100 rpm at 25° C., for 1 hour. After 1:500 dilution, the solution was homogenized for 1 hour at 25° C., before homogenization at 2-8° C., overnight, 12-40 μL of stock solution were used for spiking experiments yielding final FFA concentrations of (1) 10 μg/mL and (2) 25 μg/mL (lauric acid) or (1) 3 μg/mL and (2) 10 μg/mL (myristic acid). Dilutions with stock solutions 1 yield FFA concentration below their solubility limit, whereas stock solutions 2 act as positive control confirmed by the formation of visible particles. FFA concentrations were verified for selected by LC-MS samples acc. Honemann et al.^7
Representative mixtures of glass leachables were obtained from three different types of glass vials, e.g. Exp 33 and Exp51 (Schott A G, Müllheim, D E, and Schott North America Inc., N.Y. USA) in the 6 mL format, by three autoclavation cycles (121° C., 20 min) representing accelerate aging conditions. Vials were filled with 6 mL of either water for injection (WFI), 20 mM glycine solution pH 10 or a typical placebo solution used for protein formulations consisting of 20 mM Histidine/Histdine-HCl buffer pH 6.0, 10 mM Methionine, 240 mM sucrose (Ferro Pfanstiehl. Waukegan. Ill. USA), and 0.02% PS20. The pH of the glycine solutions was adapted after autoclavation with HCl to pH 6.0 and filtered through a 0.22 μm PVDF Sterivex filters (Merck Millipore. Darmstadt. Del.) Leachable concentrations were verified ICP-MS (Table 1) as described by Ditter et al.^8 Spiking experiments with FFA were performed in triplicates,
as §1, §2
Glass leachables were generated from different types of glass vials, e.g. Exp33 and Exp51 vials, with different matrix solutions including WFI, a glycine solution adjusted to pH 6, and a placebo solution representative for a mAb formulation. Defined amounts of myristic and lauric acid below their solubility limit were added to the solutions/mixtures of glass leachables and analyzed. Visible particles in Seidenader are summarized in Table 3 and were detected for all samples in contrast to various controls. Particle formation was dependent on the glass leachable solution and dependent on incubation time. […] An example for the dependency of particle formation on incubation time is provided in Table 3 for myristic acid in glass leachable solution from Exp51 vials/glycine solution. The example highlights the kinetics of particle formation with no particles directly after spiking and more than 10 particles at incubation day 5 and 7. For selected samples, particles were further characterized and identified by FTIR confirming the presence of free fatty acids. […]

[3] = CaCl2 250 μg/mL (Ca2+ 90 μg/mL)
[4] = CaCl2 500 μg/mL (Ca2+ 180 μg/mL)
[5] = CaCl2 1000 μg/mL (Ca2+ 360 μg/mL)
[6] = NaAlO2 nominal 250 μg/mL (0.012 μg/mL ion)
[7] = NaAlO2 nominal 500 μg/mL (0.024 μg/mL ion)
[8] = NaAlO2 nominal 1000 μg/mL (0.048 μg/mL ion)
[9] = Exp51 vials, 3xTS Glycine pH 6, samples 1-3
[10] = Exp51 vials, 3xTS Glycine pH 6, samples 1-3, listed as myristic acid
[11] = glass leachable solution Exp33 vials, 3xTS Placebo
[12] = glass leachable solution Exp33 vials, 3xTS WFI
[13] = glass leachable solution Exp51 vials, 3xTS Glycine pH 6
[14] = glass leachable solution Exp51 vials, 3xTS Placebo
[15] = glass leachable solution Exp51 vials, 3xTS WFI

SMILES	Visible particles in Seidenader ([1]; B2O3 solution)	Visible particles Seidenader d0 [1, 3]	Visible particles Seidenader d2 [1, 3]	Visible particles Seidenader d7 [1, 3]	Visible particles Seidenader d0 [1, 4]	Visible particles Seidenader d2 [1, 4]	Visible particles Seidenader d7 [1, 4]	Visible particles Seidenader d2 [1, 5]	Visible particles Seidenader d1 [1, 6]	Visible particles Seidenader d2 [1, 6]	Visible particles Seidenader d7 [1, 8]	Visible particles in Seidenader ([1]; NaBO2 solution)	Visible particles [2, 11]	Visible particles [2, 12]	Visible particles [2, 13]	Visible particles [2, 14]	Visible particles [2, 15]	further results
CCCCCCCCCCCCCC(=O)O [Myristic acid, myristic acid]	visible particles were obtained	xxx (Many particles (>10, xxx))	xxx (Many particles (>10, xxx))	xxx (Many particles (>10, xxx))	xxx (Many particles (>10, xxx))	xxx (Many particles (>10, xxx))	xxx (Many particles (>10, xxx))	xxx (Many particles (>10, xxx))	x (Essentially free of particles (1-5, x))	x (Essentially free of particles (1-5, x))	xxx (Many particles (>10, xxx))	visible particles were obtained	+	+	+++	+	+	Visible particles Seidenader d1 [1, 3]: xxx (Many particles (>10, xxx)); Visible particles Seidenader d1 [1, 4]: xxx (Many particles (>10, xxx)); Visible particles Seidenader d0 [1, 5]: xxx (Many particles (>10, xxx)); Visible particles Seidenader d1 [1, 5]: xxx (Many particles (>10, xxx)); Visible particles Seidenader d7 [1, 5]: xxx (Many particles (>10, xxx)); Visible particles Seidenader d7 [1, 6]: xxx (Many particles (>10, xxx)); Visible particles Seidenader d2 [1, 7]: x (Essentially free of particles (1-5, x)); Visible particles Seidenader d7 [1, 7]: xxx (Many particles (>10, xxx)); Visible particles Seidenader d0 [1, 8]: x (Essentially free of particles (1-5, x)); Visible particles d0 [2, 9]: 1-5 particles; Visible particles d0 [2, 10]: no particles; Visible particles d1 ([2]; Exp51 vials, 3xTS Glycine pH 6, d1, samples 1-3): 1-5 particles; Visible particles d5/7 [2, 9]: >10 particles; Visible particles d5/7 [2, 10]: more than 10 particles; Visible particles ([2]; glass leachable solution Exp33 vials, 3xTS Glycine pH 6): +
CCCCCCCCCCCC(=O)O [Lauric acid, lauric acid]	visible particles were obtained	/ (Free of particles (0, /) by Seidenader)	xxx (Many particles (>10, xxx))	xxx (Many particles (>10, xxx))	/ (Free of particles (0, /) by Seidenader)	xxx (Many particles (>10, xxx))	xxx (Many particles (>10, xxx))	xxx (Many particles (>10, xxx))	x (Essentially free of particles (1-5, x))	x (Essentially free of particles (1-5, x))	xxx (Many particles (>10, xxx))	visible particles were obtained	+++	+	++	+++	++	Visible particles Seidenader d0 [1, 6]: / (Free of particles (0, /) by Seidenader); Visible particles Seidenader d0 [1, 7]: x (Essentially free of particles (1-5, x)); Visible particles Seidenader d1 [1, 7]: x (Essentially free of particles (1-5, x)); Visible particles Seidenader d1 [1, 8]: x (Essentially free of particles (1-5, x))
